Data from patent US10227331B2 (priority 2015, dated 2019).

Assays:
[1] = system: Klebsiella pneumoniae expressing VIM-1 (IHMA599644); format: cell-based; conditions: with imipenem 1 μg/ml, 95% inhibition of bacterial growth; for Klebsiella pneumoniae MITC95: VIM-1 (IHMA599644)
Summary of the method: (§1)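 Restoration of imipenem susceptibility (1 μg/ml imipenem) was judged by absorbance after 22–24 h at 35° C. Test compound was added to bacteria suspended 1:100 in 1.1× CAMHB from overnight blood-agar cultures.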

[2] = system: Escherichia coli expressing NDM-1 (CLB30005, CLB30016); format: cell-based; conditions: with imipenem 1 μg/ml, 95% inhibition of bacterial growth; for Escherichia coli MITC95: NDM-1 (CLB30016)
Summary of the method: as §1

[3] = system: Serratia marcescens expressing IMP-1 (CL5741); format: cell-based; conditions: with imipenem 1 μg/ml, 95% inhibition of bacterial growth; for Serratia marcescens MITC95: IMP-1 (CL5741)
Summary of the method: as §1

[4] = system: P. aeruginosa expressing IMP-1, efflux− (MB9799); experiment: Efflux: concentration of MBL inhibitor which restores susceptibility to imipenem; format: cell-based, Pseudomonas aeruginosa; conditions: imipenem at 2 μg/mL, in the presence of a class A, C, D serine β-lactamase inhibitor closely related to relebactam
Source text: (§2) The strain background is Pseudomonas aeruginosa PAO1.

NDM-1 = NDM-1 (Klebsiella pneumoniae, UniProt C7C422); experiment: biochemical; format: biochemical; conditions: CCF2-FA substrate, 2 hours at 25° C; read-out: NDM-1 IC50
Summary of the method: (§3)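 IC50 values derive from 4-parameter fits of percent inhibition against inhibitor concentration on semi-log axes. Activity was monitored by fluorescence with the CCF2-FA substrate after a 2-hour, 25° C incubation of compound, enzyme and substrate.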

IMP-1 = IMP-1 (Serratia marcescens, UniProt P52699); experiment: biochemical; format: biochemical; conditions: CCF2-FA substrate, 2 hours at 25° C; read-out: IMP-1 IC50
Summary of the method: as §3

VIM-1 = VIM-1 (Pseudomonas aeruginosa (strain ATCC 15692 / DSM 22644 / CIP 104116 / JCM 14847 / LMG 12228 / 1C / PRS 101 / PAO1), UniProt A0A0F7KYQ8); experiment: biochemical; conditions: CCF2-FA substrate, 2 hours at 25° C
Summary of the method: as §3

[5] = system: P. aeruginosa expressing IMP-1, efflux+ (MB9798); format: cell-based, Pseudomonas aeruginosa; conditions: for P. aeruginosa expressing IMP-1, efflux+ (MB9798) MITC95: imipenem at 2 μg/mL, in the presence of a class A, C, D serine β-lactamase inhibitor closely related to relebactam; for Efflux ratio: ratio MITC95 PA_9798/MITC95 PA_9799
Source text: as §2

Sequence of IMP-1 (P52699 whole entry, looked up, species assumed): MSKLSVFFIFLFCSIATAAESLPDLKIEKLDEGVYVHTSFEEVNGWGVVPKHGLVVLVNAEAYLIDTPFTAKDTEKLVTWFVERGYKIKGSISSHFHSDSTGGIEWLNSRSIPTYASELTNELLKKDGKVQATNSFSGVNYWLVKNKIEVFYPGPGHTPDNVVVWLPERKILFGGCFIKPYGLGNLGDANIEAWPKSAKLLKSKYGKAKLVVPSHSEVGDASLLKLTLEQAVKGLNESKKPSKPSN
Sequence of NDM-1 (C7C422 whole entry, looked up, species assumed): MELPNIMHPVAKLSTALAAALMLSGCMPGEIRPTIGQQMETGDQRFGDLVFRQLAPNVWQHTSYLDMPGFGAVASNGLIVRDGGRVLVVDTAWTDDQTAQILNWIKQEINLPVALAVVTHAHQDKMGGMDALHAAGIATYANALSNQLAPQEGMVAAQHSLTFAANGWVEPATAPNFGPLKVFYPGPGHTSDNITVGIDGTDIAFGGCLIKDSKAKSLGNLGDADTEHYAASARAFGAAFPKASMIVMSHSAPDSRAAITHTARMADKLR

SMILES	Klebsiella pneumoniae expressing VIM-1 (IHMA599644) MITC95 [1]	Escherichia coli expressing NDM-1 (CLB30016) MITC95 [2]	Serratia marcescens expressing IMP-1 (CL5741) MITC95 [3]	P. aeruginosa expressing IMP-1, efflux− (MB9799) MITC95 [4]	IC50 (NDM-1)	IC50 (IMP-1)	IC50 (VIM-1)	P. aeruginosa expressing IMP-1, efflux+ (MB9798) MITC95 [5]	Efflux ratio [5]	Klebsiella pneumoniae MITC95 [1]	Escherichia coli MITC95 [2]	Serratia marcescens MITC95 [3]
N#Cc1cccc(-c2ccc(S(=O)(=O)C3CNC3)c(S(N)(=O)=O)c2-c2nn[nH]n2)c1N [Example 196, 2′-amino-4-(azetidin-3-ylsulfonyl)-3′-cyano-2-(2H-tetrazol-5-yl)-[1,1′-biphenyl]-3-sulfonamide]	1.563 µM	0.7813 µM	1.563 µM	0.7813 µM	0.315 nM	1.54 nM	0.233 nM	12.5 µM	16.00			
NCCS(=O)(=O)c1ccc(-c2cncc3ccccc23)c(-c2nnn[nH]2)c1S(N)(=O)=O.O=C(O)C(F)(F)F [Example 148, 2-((4-(isoquinolin-4-yl)-2-sulfamoyl-3-(1H-tetrazol-5-yl)phenyl)sulfonyl)ethanaminium 2,2,2-trifluoroacetate]	3.125 µM	3.125 µM	3.125 µM	1.563 µM	0.608 nM	0.983 nM	0.434 nM	3.125 µM	2.00			
NCCS(=O)(=O)c1ccc(-c2cccc3sc(CN)nc23)c(-c2nn[nH]n2)c1S(N)(=O)=O [Example 87, 6-(2-aminoethylsulfonyl)-3-(2-(aminomethyl)benzo[d]thiazol-4-yl)-2-(2H-tetrazol-5-yl)benzenesulfonamide]	0.7813 µM	0.7813 µM	0.7813 µM	0.3906 µM	0.475 nM	0.562 nM	0.133 nM	0.7813 µM	2.00			
NCc1nc2c(-c3ccc(S(=O)(=O)C[C@H](O)CN)c(S(N)(=O)=O)c3-c3nn[nH]n3)cccc2[nH]1 [Example 370, (R)-6-((3-amino-2-hydroxypropyl)sulfonyl)-3-(2-(aminomethyl)-1H-benzo[d]imidazol-4-yl)-2-(2H-tetrazol-5-yl) benzenesulfonamide]				0.7813 µM	0.361 nM	1.25 nM	0.393 nM	0.7813 µM	1.00	1.563 µM	0.7813 µM	0.7813 µM
C[C@@H](N)CS(=O)(=O)c1ccc(-c2cccc3c2nc(N)n3C)c(-c2nn[nH]n2)c1S(N)(=O)=O [Example 275, 3-(2-amino-1-methyl-1H-benzo[d]imidazol-4-yl)-6-((R)-2-aminopropylsulfonyl)-2-(2H-tetrazol-5-yl)benzenesulfonamide]				0.8906 µM	0.582 nM	0.84 nM	0.696 nM	2.563 µM	2.88	1.781 µM	0.5 µM	0.8906 µM
NS(=O)(=O)c1c(S(=O)(=O)C2CNC2)ccc(-c2cnc(N3CCCC3)s2)c1-c1nnn[nH]1.O=C(O)C(F)(F)F [Example 121, 3-((4-(2-(pyrrolidin-1-yl)thiazol-5-yl)-2-sulfamoyl-3-(1H-tetrazol-5-yl)phenyl)sulfonyl)azetidin-1-ium 2,2,2-trifluoroacetate]	6.25 µM	0.7813 µM	3.125 µM	1.563 µM	0.74 nM	3.57 nM	1.44 nM	200 µM	127.96			
